Experiments:
SCD1 = target: T1, SCD1 (Homo sapiens, UniProt O00767); assay: Growth inhibition of humanized yeast strain expressing SCD1 as sole desaturase; type: cell-based
T1 construct: host or cells: S. cerevisiae ole1Δ strain (W303 pdr1Δ pdr3Δ background), plasmid pRS316 with TDH3 promoter and CYC1 terminator
T1 sequence (O00767 1-359): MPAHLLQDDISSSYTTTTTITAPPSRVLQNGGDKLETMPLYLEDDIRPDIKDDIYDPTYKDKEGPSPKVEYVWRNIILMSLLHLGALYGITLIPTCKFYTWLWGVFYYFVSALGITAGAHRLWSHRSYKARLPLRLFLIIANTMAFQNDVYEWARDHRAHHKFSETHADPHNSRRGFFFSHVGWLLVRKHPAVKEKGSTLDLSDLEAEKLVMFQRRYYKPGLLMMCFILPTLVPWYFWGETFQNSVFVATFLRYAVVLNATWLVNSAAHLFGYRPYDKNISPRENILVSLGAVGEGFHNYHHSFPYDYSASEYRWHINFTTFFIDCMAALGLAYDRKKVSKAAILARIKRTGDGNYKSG
Experimental: Strain oleΔ (yeast ole1 deletion mutant) was constructed by deleting OLE1 with NAT-MX6 in BY4741, amplifying the deletion cassette from the genomic DNA of the resulting strain with primers flanking the ORF by 1000 bp upstream and downstream, transforming the resulting deletion cassette into W303 pdr1Δ pdr3Δ, and plating transformants on YPD media containing G418 (200 μg/mL) and nourseothricin ([…]) with 0.01% TWEEN®-20 and 0.5 mM oleic and palmitoleic acids.
The coding sequence of yeast OLE1 was also cloned into this plasmid). These clones were then transformed into the ole1Δ strain and plated on CSM-Ura media (CSM lacking uracil) with 2% glucose (w/v) and independent colonies were isolated and amplified.
All compound profiling experiments were performed using the same basic protocol. Different genetic backgrounds (e.g., gene deletions) or conditions (e.g., addition of oleic and palmitoleic acid) were replaced as indicated below.
Yeast were cultured using standard techniques in complete synthetic media (CSM) and yeast nitrogen base supplemented with 2% (w/v) carbon source (glucose, raffinose, or galactose) to regulate the expression of the toxic disease protein. An initial starter culture was inoculated in 3 mL CSM-Glucose media and incubated overnight in a 30° C. shaker incubator (225 rpm). Saturated morning cultures were then diluted 1:20 in fresh CSM-Raffinose media and grown for 6 h to an OD600 (optical density) of ˜0.4-0.8 at 30° C. with shaking.
Compound administration was performed in two separate steps. First, 15 μL of CSM-Galactose (induces expression of toxic protein) was dispensed into clear 384 well assay plates using a MULTIDROP™ Combi reagent dispenser. […] The cultures described above were then diluted to a 2× concentration (0.03 and 0.08 for alpha-synuclein and ApoE, final ODsoo of 0.015 and 0.04) in CSM-Galactose. For wild-type and Ole1/SCD1/SCD5 plasmid-containing strains, the 2× cell density was 0.02. […] For 96-well assays (FIGS. 1A and 1B), compound dilutions in DMSO were generated in 96 well plates and 1 μL was manually pipetted into 96 well clear bottom assay plates.
For experiments using a plasmid-borne copy of Ole1, SCD1, or SCD5 (FIGS. 3B, 6, and 7), media lacking uracil (SX-Ura, where X is glucose, raffinose, or galactose), was used for all steps of the compound profiling protocol to ensure its maintenance throughout the assay.
After yeast delivery, assay plates were incubated under humidified conditions at 30° C. for 24 to 40 h. ApoE4 rescue experiments were stopped at 24 h, aSyn experiments at 40 h, Ole1 at 24 h, and SCD1/SCD5 at 40 h. The growth of yeast was monitored by reading the ODsoo of each well using a microplate reader (Perkin Elmer EnVision™).

SCD5 = target: T2, SCD5 (Homo sapiens, UniProt Q86SK9); assay: Growth inhibition of humanized yeast strain expressing SCD5 as sole desaturase; type: cell-based
T2 construct: host or cells: S. cerevisiae ole1Δ strain (W303 pdr1Δ pdr3Δ background), plasmid pRS316 with TDH3 promoter and CYC1 terminator
T2 sequence (Q86SK9 1-330): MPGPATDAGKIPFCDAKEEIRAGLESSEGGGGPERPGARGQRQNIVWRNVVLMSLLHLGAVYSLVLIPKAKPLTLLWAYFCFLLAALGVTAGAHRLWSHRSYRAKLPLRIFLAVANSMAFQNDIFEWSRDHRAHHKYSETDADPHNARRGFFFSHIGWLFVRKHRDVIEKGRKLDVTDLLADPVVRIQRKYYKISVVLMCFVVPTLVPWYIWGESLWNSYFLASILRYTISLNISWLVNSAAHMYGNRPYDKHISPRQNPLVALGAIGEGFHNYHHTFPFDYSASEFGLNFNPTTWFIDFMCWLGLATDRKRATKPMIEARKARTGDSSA
Outline: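 Yeast ole1Δ strain (W303 pdr1Δ pdr3Δ background) carrying plasmid-borne Ole1, SCD1 or SCD5 as sole desaturase was grown in uracil-lacking media, pre-cultured in raffinose for 6 h, then seeded in galactose medium with compound in DMSO. Growth was read as OD600 after 30° C. incubation: 24 h for Ole1, 40 h for SCD1/SCD5.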

[1] = growth inhibition of humanized yeast strain expressing human SCD1
[2] = growth inhibition of humanized yeast strain expressing human SCD5
[3] = humanized yeast strain expressing SCD1
[4] = humanized yeast strain expressing SCD5

| Compound | IC50 (SCD1; humanized yeast strain, 40 h) [µM] | IC50 (SCD5; humanized yeast strain, 40 h) [nM] | other results |
| --- | --- | --- | --- |
| CCC(=O)N1CCC(c2noc(-c3ccccc3N3CCOCC3)n2)CC1 [Compound 1168] | > 45 | > 45000 | – |
| CC(=O)N1CC(n2ncc3ccc(-c4nc(N5CCn6c(Cl)cnc6C5)no4)cc32)C1 [Compound 935] | > 45 | > 45000 | – |
| CC(C)n1ncc2ccc(-c3noc(C4CCN(C(=O)c5ncc(Cl)o5)CC4)n3)cc21 [Compound 758] | > 45 | 5270 | – |
| O=C(CC1CC1)N1CCN(c2noc(-c3ccc4cnn(C5COC5)c4c3)n2)CC(F)(F)C1 [Compound 1035] | > 45 | 265 | – |
| CC(C)(C)OC(=O)N1CCC(c2nc(-c3cccc(OC4COC4)c3)no2)CC1 [Compound 672] | – | – | IC50 (SCD1; [1]): > 45 µM; IC50 (SCD5; [2]): 441 nM |
| CC(C)n1ncc2ccc(-c3noc(C4CCN(C(=O)C(C)(C)C#N)CC4)n3)cc21 [Compound 717] | – | – | IC50 (SCD1; [1]): > 45 µM; IC50 (SCD5; [2]): 1700 nM |
| COC(=O)N1CCC(c2cc(-c3ccc4cnn(C5COC5)c4c3)on2)CC1 [Compound 1027] | > 45 | 3160 | – |
| CC(=O)NCCc1nn(C(C)C)c2cc(-c3noc(C4CCN(C(=O)OC(C)(C)C)CC4)n3)ccc12 [Compound 760] | > 45 | > 45000 | – |
| COC(=O)N1CCCN(c2noc(-c3cc(F)c4cnn(C5COC5)c4c3)n2)CC1 [Compound 963] | > 45 | 160 | – |
| CC1(OC(=O)N2CCC(c3noc(-c4cc(F)c5cnn(C6COC6)c5c4)n3)CC2)CC1 [Compound 1069] | > 45 | 0.862 | – |
| CC(C)n1ncc2cnc(-c3cc(C4CCN(C(=O)OC5(C)CC5)CC4)on3)cc21 [Compound 919] | > 45 | 180 | – |
| CC1(OC(=O)N2CCC(c3noc(-c4ccnc(N5CCC(F)(F)C5)c4)n3)CC2)CC1 [Compound 1171] | 1.14 | 31.1 | – |
| O=C(N1CC(c2noc(-c3ccc4cnn(C5COC5)c4c3)n2)C1)C(F)(F)F [Compound 954] | > 45 | 2860 | – |
| CC(C)n1ncc2ccc(-c3nc(N4CCn5c(Cl)cnc5C4)no3)cc21 [Compound 828] | > 45 | 67 | – |
| CC(C)(C)OC(=O)N1C[C@@H]2[C@H](C1)[C@H]2NC(=O)c1ccc2cnn(C3COC3)c2c1 [Compound 814] | > 45 | > 45000 | – |
| CC(C)(C)OC(=O)N1CCC(c2nc(-c3ccc4cnn([C@H]5C[C@](C)(O)C5)c4c3)no2)CC1 [Compound 820] | > 45 | 3740 | – |
| COC(=O)N1CCC(c2noc(-c3ccnc(C4CCOC4)c3)n2)CC1 (stereo not drawn) [Compound 1015] | > 45 | 429 | – |
| CC(C)n1ncc2ccc(-c3noc(C4(O)CCN(C(=O)OC(C)(C)C)CC4)n3)cc21 [Compound 832] | > 45 | 11600 | – |
| CNC(=O)O[C@H]1CC[C@H](c2nc(-c3ccc4c(C)nn(C)c4c3)no2)CC1 [Compound 609] | – | – | IC50 (SCD1; [1]): > 45 µM; IC50 (SCD5; [2]): > 45000 nM |

| Compound | IC50 (SCD1; humanized yeast strain, 40 h) [µM] | IC50 (SCD5; humanized yeast strain, 40 h) [nM] | other results |
| --- | --- | --- | --- |
| CC(C)(C)C(=O)N1CC2(CC(c3noc(-c4ccc5cnn(C6COC6)c5c4)n3)C2)C1 [Compound 1033] | > 45 | 3910 | – |
| Cc1nn(C)c2cc(-c3noc(N4CCN(C(=O)OC5(C)CC5)CC4)n3)ccc12 [Compound 613] | – | – | IC50 (SCD1; [1]): > 45 µM; IC50 (SCD5; [2]): > 45000 nM |
| CC1(OC(=O)N2CCC(c3noc(-c4ccnc([C@@H]5CCOC5)c4)n3)CC2)CC1 [Compound 1137] | > 45 | 52.2 | – |
| CCOC(=O)CC(C)n1ncc2ccc(-c3noc(C4CCN(C(=O)OC(C)(C)C)CC4)n3)cc21 (stereo not drawn) [Compound 651] | – | – | IC50 (SCD1; [1]): > 45 µM; IC50 (SCD5; [2]): 18400 nM |
| COC(=O)N1CCC(c2noc(-c3cccc(C4CCO4)c3)n2)CC1 (stereo not drawn) [Compound 1191] | > 45 | 1360 | – |
| C=C(C)c1nccn2cc(-c3nc(C4CCN(C(=O)OC(C)(C)C)CC4)no3)cc12 [Compound 888] | > 45 | 10 | – |
| COC(=O)N1CCC(c2nnc(-c3ccc4cnn(C(C)C)c4c3)o2)CC1 [Compound 852] | > 45 | 5360 | – |
| CC(C)(C)OC(=O)N1CC=C(c2nc(-c3ccc4cnn(C5COC5)c4c3)ns2)CC1 [Compound 633] | – | – | IC50 (SCD1; [1]): > 45 µM; IC50 (SCD5; [2]): 214 nM |
| CC(C)n1ncc2ccc(-c3noc(C4(F)CCN(C(=O)OC5(C)CC5)CC4)n3)cc21 [Compound 625] | – | – | IC50 (SCD1; [1]): > 45 µM; IC50 (SCD5; [2]): 122 nM |
| O=C(C1CCC1)N1CCC(c2cc(-c3cc4c(cn3)cnn4C3COC3)on2)CC1 [Compound 1109] | > 45 | 50 | – |
| CC(C)(C)OC(=O)N1CCC(c2nc(-c3ccc4cnn(C5CC5)c4c3)no2)CC1 [Compound 360] | – | – | SCD1 % Max Inhibition (SCD1; [3]): 64.03%; IC50 (SCD5; [4]): > 45000 nM; SCD5 % Max Inhibition (SCD5; [4]): 2.38% |
| CC(C)(C)OC(=O)N1CCC(c2nc(-c3ccc4cnn(C5CN(C(=O)OC(C)(C)C)C5)c4c3)no2)CC1 [Compound 652] | – | – | IC50 (SCD1; [1]): > 45 µM; IC50 (SCD5; [2]): > 45000 nM |
| Cc1nn(C)c2cc(-c3noc(C4CCN(C(=O)CNC(=O)c5ccc(Cl)cn5)CC4(F)F)n3)ccc12 (stereo not drawn) [Compound 553] | – | – | IC50 (SCD1; [3]): 5.71 µM; IC50 (SCD5; [4]): 885 nM |
| CC(C)(C)OC(=O)N1CCC(c2ccc(-c3ccc4cnn(C5COC5)c4c3)nn2)CC1 [Compound 1030] | > 45 | 11000 | – |
| C[C@@H]1C[C@@H](c2noc(-c3ccc4cnn(C5COC5)c4c3)n2)CCN1C(=O)C1CCC1 [Compound 1066] | > 45 | 0.681 | – |
| COC(=O)N1CCC(c2noc(-c3cc(F)c4cnn(C5COC5)c4c3)n2)CC1 [Compound 875] | > 45 | 20 | – |
| CC(C)n1ncc2ccc(-c3cc(C4CCN(C(=O)OC(C)(C)C)CC4)on3)nc21 [Compound 835] | > 45 | > 45000 | – |
| CC(C)n1ncc2ccc(-c3noc(C4CCCN(C(=O)OC(C)(C)C)C4)n3)cc21 (stereo not drawn) [Compound 563] | – | – | IC50 (SCD1; [3]): > 45 µM; IC50 (SCD5; [4]): > 45000 nM |

— patent US11873298B2, “Compounds and uses thereof” (JANSSEN PHARMACEUTICA NV, priority 2017, dated 2024)
